Species on record: Rattus norvegicus
Test: DrugMatrix - Regimen: Daily Repeat
Assay type: toxicity, organism-based, Sprague-Dawley
Parameters: regimen Daily Repeat, gender Male, age 6-8 weeks
Conditions: in vivo, po, route oral GAVAGE, vehicle 100 % WATER; for ABSOLUTE BASOPHIL / ABSOLUTE EOSINOPHIL / ABSOLUTE LYMPHOCYTE / ABSOLUTE MONOCYTE / ABSOLUTE SEGMENTED NEUTROPHIL / BASOPHIL / EOSINOPHIL / ERYTHROCYTE COUNT / HEMATOCRIT / HEMOGLOBIN / LEUKOCYTE COUNT / LYMPHOCYTE / MEAN CORPUSCULAR HEMOGLOBIN / MEAN CORPUSCULAR HEMOGLOBIN CONCENTRATION / MEAN CORPUSCULAR VOLUME / MONOCYTE / NEUTROPHIL / NUCLEATED RED BLOOD CELLS / PLATELET COUNT: tissue Blood; for ALANINE AMINOTRANSFERASE / ALBUMIN / ALKALINE PHOSPHATASE / ASPARTATE AMINOTRANSFERASE / BLOOD UREA NITROGEN / CARBON DIOXIDE / CHLORIDE / CHOLESTEROL / CREATINE PHOSPHOKINASE / CREATININE / GLUCOSE / LACTATE DEHYDROGENASE / LIPASE / PHOSPHORUS / POTASSIUM / SODIUM / TOTAL BILIRUBIN / TOTAL PROTEIN / URIC ACID: tissue Plasma
[1] = 0 mg/kg, 72 h, dose level Control, time 3 day
[2] = 0 mg/kg, 120 h, dose level Control, time 5 day
[3] = 120 mg/kg, 72 h, dose level Low, time 3 day

CCN(CC)CCNC(=O)c1cc(S(C)(=O)=O)ccc1OC [TIAPRIDE]
ABSOLUTE BASOPHIL [1]: 0 CELLS/uL
ABSOLUTE EOSINOPHIL [1]: 151.33 CELLS/uL
ABSOLUTE LYMPHOCYTE [1]: 10599.5 CELLS/uL
ABSOLUTE MONOCYTE [1]: 109.5 CELLS/uL
ABSOLUTE SEGMENTED NEUTROPHIL [1]: 1139.67 CELLS/uL
BASOPHIL [1]: 0%
EOSINOPHIL [1]: 0.83%
ERYTHROCYTE COUNT [1]: 5.54 x10E6/uL
HEMATOCRIT [1]: 35.35%
HEMOGLOBIN [1]: 13.22 G/DL
LEUKOCYTE COUNT [1]: 12 x10E3/uL
LYMPHOCYTE [1]: 89%
MEAN CORPUSCULAR HEMOGLOBIN [1]: 23.88 pg
MEAN CORPUSCULAR HEMOGLOBIN CONCENTRATION [1]: 37.4 G/DL
MEAN CORPUSCULAR VOLUME [1]: 63.85 fL
MONOCYTE [1]: 1%
NEUTROPHIL [1]: 9.17%
NUCLEATED RED BLOOD CELLS [1]: 0 /100WBC
PLATELET COUNT [1]: 1333.33 x10E3/uL
ALANINE AMINOTRANSFERASE [1]: 53.17 u/L
ALBUMIN [1]: 4.32 G/DL
ALKALINE PHOSPHATASE [1]: 404.33 u/L
ASPARTATE AMINOTRANSFERASE [1]: 83.17 u/L
BLOOD UREA NITROGEN [1]: 15.67 mg/dL
CARBON DIOXIDE [1]: 27.33 mmol/L
CHLORIDE [1]: 101.83 MEQ/L
CHOLESTEROL [1]: 68.67 mg/dL
CREATINE PHOSPHOKINASE [1]: 276.17 u/L
CREATININE [1]: 0.18 mg/dL
GLUCOSE [1]: 163.5 mg/dL
LACTATE DEHYDROGENASE [1]: 144.67 u/L
LIPASE [1]: 8.83 u/L
PHOSPHORUS [1]: 11.72 mg/dL
POTASSIUM [1]: 5.99 MEQ/L
SODIUM [1]: 143.57 MEQ/L
TOTAL BILIRUBIN [1]: 0.2 mg/dL
TOTAL PROTEIN [1]: 6.1 G/DL
URIC ACID [1]: 1.38 mg/dL
ABSOLUTE BASOPHIL [2]: 0 CELLS/uL
ABSOLUTE EOSINOPHIL [2]: 248.67 CELLS/uL
ABSOLUTE LYMPHOCYTE [2]: 12977.83 CELLS/uL
ABSOLUTE MONOCYTE [2]: 19.67 CELLS/uL
ABSOLUTE SEGMENTED NEUTROPHIL [2]: 1137.17 CELLS/uL
BASOPHIL [2]: 0%
EOSINOPHIL [2]: 1.67%
ERYTHROCYTE COUNT [2]: 5.82 x10E6/uL
HEMATOCRIT [2]: 36.35%
HEMOGLOBIN [2]: 13.58 G/DL
LEUKOCYTE COUNT [2]: 14.38 x10E3/uL
LYMPHOCYTE [2]: 90.5%
MEAN CORPUSCULAR HEMOGLOBIN [2]: 23.32 pg
MEAN CORPUSCULAR HEMOGLOBIN CONCENTRATION [2]: 37.42 G/DL
MEAN CORPUSCULAR VOLUME [2]: 62.42 fL
MONOCYTE [2]: 0.17%
NEUTROPHIL [2]: 7.67%
NUCLEATED RED BLOOD CELLS [2]: 0 /100WBC
PLATELET COUNT [2]: 1337.67 x10E3/uL
ALANINE AMINOTRANSFERASE [2]: 48.5 u/L
ALBUMIN [2]: 4.32 G/DL
ALKALINE PHOSPHATASE [2]: 354.33 u/L
ASPARTATE AMINOTRANSFERASE [2]: 80 u/L
BLOOD UREA NITROGEN [2]: 16 mg/dL
CARBON DIOXIDE [2]: 27.33 mmol/L
CHLORIDE [2]: 100.33 MEQ/L
CHOLESTEROL [2]: 68 mg/dL
CREATINE PHOSPHOKINASE [2]: 325.17 u/L
CREATININE [2]: 0.23 mg/dL
GLUCOSE [2]: 172 mg/dL
LACTATE DEHYDROGENASE [2]: 254.83 u/L
LIPASE [2]: 8.33 u/L
PHOSPHORUS [2]: 12.17 mg/dL
POTASSIUM [2]: 6.28 MEQ/L
SODIUM [2]: 143.57 MEQ/L
TOTAL BILIRUBIN [2]: 0.18 mg/dL
TOTAL PROTEIN [2]: 6.12 G/DL
URIC ACID [2]: 1.78 mg/dL
ABSOLUTE BASOPHIL [3]: 0 CELLS/uL
ABSOLUTE EOSINOPHIL [3]: 161.33 CELLS/uL
ABSOLUTE LYMPHOCYTE [3]: 8742.33 CELLS/uL
ABSOLUTE MONOCYTE [3]: 34.33 CELLS/uL
ABSOLUTE SEGMENTED NEUTROPHIL [3]: 962 CELLS/uL
BASOPHIL [3]: 0%
EOSINOPHIL [3]: 1.33%
ERYTHROCYTE COUNT [3]: 5.57 x10E6/uL
HEMATOCRIT [3]: 35.07%
HEMOGLOBIN [3]: 13.23 G/DL
LEUKOCYTE COUNT [3]: 9.9 x10E3/uL
LYMPHOCYTE [3]: 88.33%
MEAN CORPUSCULAR HEMOGLOBIN [3]: 23.77 pg
MEAN CORPUSCULAR HEMOGLOBIN CONCENTRATION [3]: 37.7 G/DL
MEAN CORPUSCULAR VOLUME [3]: 63.03 fL
MONOCYTE [3]: 0.33%
NEUTROPHIL [3]: 10%
NUCLEATED RED BLOOD CELLS [3]: 0 /100WBC
PLATELET COUNT [3]: 1263 x10E3/uL
ALANINE AMINOTRANSFERASE [3]: 47.67 u/L
ALBUMIN [3]: 4.13 G/DL
ALKALINE PHOSPHATASE [3]: 345 u/L
ASPARTATE AMINOTRANSFERASE [3]: 82.33 u/L
BLOOD UREA NITROGEN [3]: 15.33 mg/dL
CARBON DIOXIDE [3]: 27.33 mmol/L
CHLORIDE [3]: 103 MEQ/L
CHOLESTEROL [3]: 60.67 mg/dL
CREATINE PHOSPHOKINASE [3]: 172.67 u/L
CREATININE [3]: 0.19 mg/dL
GLUCOSE [3]: 170.33 mg/dL
LACTATE DEHYDROGENASE [3]: 114 u/L
LIPASE [3]: 8 u/L
PHOSPHORUS [3]: 12.83 mg/dL
POTASSIUM [3]: 5.99 MEQ/L
SODIUM [3]: 145.83 MEQ/L
TOTAL BILIRUBIN [3]: 0.2 mg/dL
TOTAL PROTEIN [3]: 6.17 G/DL
URIC ACID [3]: 1.33 mg/dL

— ChEMBL document CHEMBL3885881, “DrugMatrix”
